Reference: patent publication US10105357B2, “Indication of antibiotic drugs for preparation of cancer inhibition pharmaceutical composition” (LAUNX BIOMEDICAL CO., LTD., priority 2014, dated 2018)
Read-outs that look alike come from different tables or passages of the source.

How the values were obtained:
Assay type in all cases: cell-based, human
cancer cell lines = experiment: Cell viability analysis (WST-1) on cancer cell lines; conditions: drug 10 μM, 72 hours, WST-1; Table 3
[1] = tested on: HI650 (Lung Adenocarcinoma); experiment: Cell viability analysis, lung cancer HI650; conditions: Homo sapiens, NCI-H1650, 72 h
[2] = tested on: A549 (Lung Adenocarcinoma); experiment: Cell viability analysis, lung cancer A549; conditions: Homo sapiens, A549, 72 h
[3] = tested on: AGS (Gastric Adenocarcinoma); experiment: Cell viability analysis, gastric cancer AGS; conditions: Homo sapiens, 72 h
[4] = tested on: MKN-45 (Gastric Adenocarcinoma); experiment: Cell viability analysis, gastric cancer MKN-45; conditions: Homo sapiens, MKN-45, 72 h
[5] = tested on: HepG2 (Hepatocellular Carcinoma); experiment: Cell viability analysis, hepatic cancer HepG2; conditions: Homo sapiens, HepG2, 72 h
[6] = tested on: LoVo (Colorectal Adenocarcinoma); experiment: Cell viability analysis, colon cancer LoVo; conditions: Homo sapiens, LoVo, 72 h
[7] = tested on: A375 (Amelanotic Melanoma); experiment: Cell viability analysis, skin cancer A375; conditions: Homo sapiens, A-375, 72 h
[8] = tested on: HeLa (Cervix Adenocarcinoma); experiment: Cell viability analysis, cervical cancer HeLa; conditions: Homo sapiens, HeLa, 72 h
[9] = tested on: PC3 (p53−) (Prostate Adenocarcinoma); experiment: Cell viability analysis, prostate cancer PC3; conditions: Homo sapiens, 72 h
[10] = tested on: TSGH-8301 (Urinary Bladder Carcinoma); experiment: Cell viability analysis, bladder cancer TSGH-8301; conditions: Homo sapiens, 72 h
[11] = tested on: MCF7 (Mammary Gland, Adenocarcinoma); experiment: Cell viability analysis, breast cancer MCF7; conditions: Homo sapiens, MCF7, 72 h
[12] = tested on: HL-60 (Acute Promyelocytic Leukemia); experiment: Cell viability analysis, leukemia HL-60; conditions: Homo sapiens, HL-60, 72 h
[13] = drug 10 μM, 72 hours, WST-1, OD450 nm, read-out: cell viability (survival rate), H1650
[14] = drug 10 μM, 72 hours, WST-1, OD450 nm, read-out: cell viability (survival rate), A549
[15] = drug 10 μM, 72 hours, WST-1, OD450 nm, read-out: cell viability (survival rate), AGS
[16] = drug 10 μM, 72 hours, WST-1, OD450 nm, read-out: cell viability (survival rate), MKN-45
[17] = drug 10 μM, 72 hours, WST-1, OD450 nm, read-out: cell viability (survival rate), HepG2
[18] = read-out: cell viability (survival rate), LoVo, drug 10 μM, 72 hours, WST-1, OD450 nm
[19] = drug 10 μM, 72 hours, WST-1, OD450 nm, read-out: cell viability (survival rate), A375
[20] = drug 10 μM, 72 hours, WST-1, OD450 nm, read-out: cell viability (survival rate), HeLa
[21] = drug 10 μM, 72 hours, WST-1, OD450 nm, read-out: cell viability (survival rate), PC3
[22] = drug 10 μM, 72 hours, WST-1, OD450 nm, read-out: cell viability (survival rate), TSGH
[23] = drug 10 μM, 72 hours, WST-1, OD450 nm, read-out: cell viability (survival rate), MCF7
[24] = drug 10 μM, 72 hours, WST-1, OD450 nm, read-out: cell viability (survival rate), HL-60
[25] = read-out: cell viability (survival rate), H1650, drug 10 μM, 72 hours, WST-1, OD450 nm
[26] = read-out: cell viability (survival rate), A549, drug 10 μM, 72 hours, WST-1, OD450 nm
[27] = read-out: cell viability (survival rate), AGS, drug 10 μM, 72 hours, WST-1, OD450 nm
[28] = read-out: cell viability (survival rate), MKN-45, drug 10 μM, 72 hours, WST-1, OD450 nm
[29] = read-out: cell viability (survival rate), HepG2, drug 10 μM, 72 hours, WST-1, OD450 nm
[30] = read-out: cell viability (survival rate), A375, drug 10 μM, 72 hours, WST-1, OD450 nm
[31] = read-out: cell viability (survival rate), HeLa, drug 10 μM, 72 hours, WST-1, OD450 nm
[32] = read-out: cell viability (survival rate), PC3, drug 10 μM, 72 hours, WST-1, OD450 nm
[33] = read-out: cell viability (survival rate), TSGH, drug 10 μM, 72 hours, WST-1, OD450 nm
[34] = read-out: cell viability (survival rate), MCF7, drug 10 μM, 72 hours, WST-1, OD450 nm
[35] = read-out: cell viability (survival rate), HL-60, drug 10 μM, 72 hours, WST-1, OD450 nm

Compound | inhibition effect on different cancer cell lines (cancer cell lines) | viability at 10 µM [1, 13] | viability at 10 µM [2, 14] | viability at 10 µM [3, 15] | viability at 10 µM [4, 16] | viability at 10 µM [5, 17] | viability at 10 µM [6, 18] | viability at 10 µM [7, 19] | viability at 10 µM [8, 20] | viability at 10 µM [1, 25] | viability at 10 µM [2, 26] | viability at 10 µM [3, 27] | viability at 10 µM [4, 28] | viability at 10 µM [5, 29] | viability at 10 µM [7, 30] | viability at 10 µM [8, 31] | viability at 10 µM [9, 32] | viability at 10 µM [10, 33] | viability at 10 µM [11, 34] | viability at 10 µM [12, 35] | other results
COc1cc(C)c(/C=C/C(C)=C/C=C/C(C)=C/C(=O)O)c(C)c1C [Acitretin] | significant inhibition effect | – | – | – | – | – | – | – | – | – | – | – | – | – | – | – | – | – | – | – | viability at 10 µM ([1]; read-out: cell viability (survival rate), H1650): 43.8%; viability at 10 µM ([2]; read-out: cell viability (survival rate), A549): 69.1%; viability at 10 µM ([3]; read-out: cell viability (survival rate), AGS): 68.1%; viability at 10 µM ([4]; read-out: cell viability (survival rate), MKN-45): 78.5%; viability at 10 µM ([5]; read-out: cell viability (survival rate), HepG2): 72.6%; viability at 10 µM ([6]; read-out: cell viability (survival rate), LoVo): 83.6%; viability at 10 µM ([7]; read-out: cell viability (survival rate), A375): 61.4%; viability at 10 µM ([8]; read-out: cell viability (survival rate), HeLa): 52.7%; viability at 10 µM ([9]; read-out: cell viability (survival rate), PC3): 92.5%; viability at 10 µM ([10]; read-out: cell viability (survival rate), TSGH): 127%; viability at 10 µM ([11]; read-out: cell viability (survival rate), MCF7): 119%; viability at 10 µM ([12]; read-out: cell viability (survival rate), HL-60): 96.7%
Cc1cn([C@H]2C=C[C@@H](CO)O2)c(=O)[nH]c1=O [Stavudine] | significant inhibition effect | 50.2% | 38.9% | 39.2% | 66.8% | 97.1% | 70.7% | 56.1% | 98.1% | – | – | – | – | – | – | – | – | – | – | – | viability at 10 µM [9, 21]: 73.5%; viability at 10 µM [10, 22]: 112%; viability at 10 µM [11, 23]: 56.6%; viability at 10 µM [12, 24]: 96%
CCCc1cc(C(N)=S)ccn1 [Protionamide (Prothionamide), Protionamide] | significant inhibition effect | 85% | 66.2% | 85.9% | 77.6% | 118% | 85.6% | 84.9% | 97.5% | – | – | – | – | – | – | – | – | – | – | – | viability at 10 µM [9, 21]: 45.2%; viability at 10 µM [10, 22]: 103%; viability at 10 µM [11, 23]: 51.2%; viability at 10 µM [12, 24]: 97.6%
N[C@@H](C(=O)N[C@@H]1C(=O)N2C(C(=O)O)=C(Cl)CS[C@H]12)c1ccccc1 [Cefaclor (Ceclor), Cefaclor] | significant inhibition effect | 62.3% | 61% | 41.9% | 97% | 108% | 88.2% | 67.5% | 86.7% | – | – | – | – | – | – | – | – | – | – | – | viability at 10 µM [9, 21]: 70.1%; viability at 10 µM [10, 22]: 81.6%; viability at 10 µM [11, 23]: 90.6%; viability at 10 µM [12, 24]: 112%
CCCCCCCCCCCCCCCCCCCCCCO [Docosanol (Abreva), Docosanol] | significant inhibition effect | 69.3% | 44% | 40.6% | 52.4% | 83.6% | 89.4% | 84.6% | 76.9% | – | – | – | – | – | – | – | – | – | – | – | viability at 10 µM [9, 21]: 70.2%; viability at 10 µM [10, 22]: 54.8%; viability at 10 µM [11, 23]: 39.1%; viability at 10 µM [12, 24]: 116%
CCN1CCN(c2cc3c(cc2F)c(=O)c(C(=O)O)cn3C2CC2)CC1 [Enrofloxacin] | significant inhibition effect | – | – | – | – | – | 84.8% | – | – | 44.5% | 67.5% | 94.5% | 37.4% | 77.2% | 65.2% | 67% | 48.6% | 77.9% | 66.6% | 86.6% | –
CCc1cc(C(N)=S)ccn1 [Ethionamide] | significant inhibition effect | – | – | – | – | – | 86.5% | – | – | 78.3% | 42.4% | 53.7% | 45.4% | 97.7% | 76.6% | 44.8% | 85.3% | 53.2% | 36.4% | 102% | –
Nc1nc2c(ncn2CCC(CO)CO)c(=O)[nH]1 [Penciclovir] | significant inhibition effect | – | – | – | – | – | 98.5% | – | – | 71.5% | 74.7% | 71% | 98.5% | 95.7% | 64.2% | 81.7% | 106% | 79.1% | 110% | 114% | –
C[C@H]1[C@H](NC(=O)/C(=N\OC(C)(C)C(=O)O)c2csc(N)n2)C(=O)N1S(=O)(=O)O [Aztreonam (Azactam, Cayston), Aztreonam] | significant inhibition effect | – | – | – | – | – | 76.3% | – | – | 48.6% | 56.9% | 40.9% | 60.5% | 111% | 88.6% | 87.2% | 55.2% | 52.3% | 68.6% | 113% | –
c1ccc(-c2ccc(C(c3ccccc3)n3ccnc3)cc2)cc1 (centres unmarked) [Bifonazole] | significant inhibition effect | – | – | – | – | – | 81.1% | – | – | 55.9% | 79.3% | 64.3% | 50.5% | 109% | 94.9% | 67.2% | 78.2% | 82.1% | 73.3% | 119% | –
Cc1cccc(C)c1OCC(=O)N[C@@H](Cc1ccccc1)[C@@H](O)C[C@H](Cc1ccccc1)NC(=O)[C@H](C(C)C)N1CCCNC1=O [Lopinavir (ABT-378), Lopinavir] | significant inhibition effect | – | – | – | – | – | 85.1% | – | – | 53.1% | 63.8% | 55.4% | 74.2% | 93.1% | 83.1% | 116% | 68% | 82.2% | 77.9% | 92.4% | –
